# Assays:
# [1] = molecular target: T1, Nuclear receptor ROR-gamma (Homo sapiens, UniProt P51449); experiment: Agonist activity at APC-labelled RORgammat (unknown origin) assessed as biotinylated SRC recruitment measured after 1 hr by dual FRET assay
# T1 sequence (P51449 whole entry): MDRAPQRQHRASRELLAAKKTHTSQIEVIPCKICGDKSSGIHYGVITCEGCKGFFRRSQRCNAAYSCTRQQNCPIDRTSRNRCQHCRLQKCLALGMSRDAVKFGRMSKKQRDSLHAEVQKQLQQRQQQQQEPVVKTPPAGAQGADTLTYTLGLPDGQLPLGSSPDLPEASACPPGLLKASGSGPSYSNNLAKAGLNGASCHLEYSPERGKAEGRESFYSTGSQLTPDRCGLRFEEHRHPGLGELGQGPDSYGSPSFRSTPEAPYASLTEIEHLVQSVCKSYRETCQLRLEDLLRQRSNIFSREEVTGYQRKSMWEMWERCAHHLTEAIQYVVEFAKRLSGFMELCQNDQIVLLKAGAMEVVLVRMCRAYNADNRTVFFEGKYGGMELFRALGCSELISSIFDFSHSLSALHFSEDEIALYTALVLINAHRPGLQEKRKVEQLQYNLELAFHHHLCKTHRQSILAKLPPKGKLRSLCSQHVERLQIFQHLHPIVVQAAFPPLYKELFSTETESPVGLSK
# [2] = molecular target: T2, Nuclear receptor ROR-gamma (Mus musculus) (UniProt P51450); experiment: Agonist activity at RORgammat in mouse CD4+ Th17 cells assessed as promotion of IL17 production at 30 nM measured after 4 days by intracellular staining based flow cytometry; type: cell-based; settings: filed as agonist, time 4.0 day
# T2 sequence (whole entry): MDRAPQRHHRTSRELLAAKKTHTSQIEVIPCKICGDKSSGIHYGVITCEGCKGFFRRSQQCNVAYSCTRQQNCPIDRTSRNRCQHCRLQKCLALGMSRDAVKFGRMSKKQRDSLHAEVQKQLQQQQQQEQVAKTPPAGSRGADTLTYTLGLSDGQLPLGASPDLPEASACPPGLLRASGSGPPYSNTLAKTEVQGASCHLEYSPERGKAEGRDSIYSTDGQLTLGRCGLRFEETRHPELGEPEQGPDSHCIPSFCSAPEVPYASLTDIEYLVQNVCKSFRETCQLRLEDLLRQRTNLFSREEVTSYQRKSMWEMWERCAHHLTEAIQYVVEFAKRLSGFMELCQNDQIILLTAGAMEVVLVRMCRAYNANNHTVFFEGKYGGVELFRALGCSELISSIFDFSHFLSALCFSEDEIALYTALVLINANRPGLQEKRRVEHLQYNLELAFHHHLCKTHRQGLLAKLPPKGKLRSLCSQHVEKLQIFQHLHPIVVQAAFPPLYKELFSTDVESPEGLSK
# [3] = molecular target: T1, Nuclear receptor ROR-gamma; experiment: Agonist activity at human RORgammat LBD expressed in HEK293T cells assessed increase in Gal4 reporter gene transcription measured after 16 to 20 hrs by luciferase reporter gene assay; type: cell-based
# [4] = molecular target: T2, Nuclear receptor ROR-gamma (Mus musculus); experiment: Agonist activity at RORgammat in mouse CD4+ Th17 cells assessed as promotion of IL17 production at 300 nM measured after 4 days by intracellular staining based flow cytometry; type: cell-based; settings: filed as agonist, time 4.0 day
# [5] = molecular target: T3, Nuclear receptor ROR-gamma (Homo sapiens) (UniProt P51449); experiment: Inverse agonist activity at human RORgammat LBD expressed in HEK293T cells assessed inhibition of Gal4 reporter gene transcription measured after 16 to 20 hrs by luciferase reporter gene assay relative to control; type: cell-based; settings: filed as inverse agonist, time 16-20 hrs
# T3 sequence (whole entry): T1 sequence (P51449 whole entry)
# [6] = molecular target: T1, Nuclear receptor ROR-gamma; experiment: Inverse agonist activity at human RORgammat LBD expressed in HEK293T cells assessed inhibition of Gal4 reporter gene transcription measured after 16 to 20 hrs by luciferase reporter gene assay; type: cell-based
# [7] = molecular target: T1, Nuclear receptor ROR-gamma; experiment: Inverse agonist activity at APC-labelled RORgammat (unknown origin) assessed as inhibition of biotinylated SRC recruitment measured after 1 hr by dual FRET assay
EC50 [1],SMILES,also measured
0.0044 µM,CC(Oc1ccc2c(c1)N(CCc1ccc(NC(=O)Cc3ccc(S(C)(=O)=O)cc3)cc1)CCO2)C(F)(F)F (centres undefined),–
0.0066 µM,CCS(=O)(=O)c1ccc(CC(=O)Nc2ccc(CCN3CCCc4ccc(OC5COC5)cc43)cc2)cc1,–
0.0209 µM,CCS(=O)(=O)c1ccc(C(CO)NC(=O)c2ccc(CCN3CCCc4ccc(CC(C)C)cc43)cc2)cc1 (centres undefined),–
0.0259 µM,CCS(=O)(=O)c1ccc(CNC(=O)Nc2ccc(CCN3CCCc4ccc(CC(C)C)cc43)cc2)cc1,–
0.046 µM,CS(=O)(=O)c1ccc(CC(=O)Nc2ccc(CCN3CCOc4ccc(C(F)(C(F)(F)F)C(F)(F)F)cc43)cc2)cc1,–
0.0115 µM,CCS(=O)(=O)c1ccc(CC(=O)Nc2ccc(CCN3CCCc4ccc(F)cc43)cc2)cc1,–
0.0089 µM,CCS(=O)(=O)c1ccc(CNC(=O)c2ccc(CCN3CCCc4ccc(CC(C)C)cc43)cc2)nc1,Activity [2]: 56.3%; EC50 [3]: 0.242 µM; Activity [4]: 104%
0.0053 µM,CCS(=O)(=O)c1ccc(CC(=O)Nc2ccc(CCN3CCCc4ccc(C=C(C)C)cc43)cc2)cc1,–
0.0128 µM,CCS(=O)(=O)c1ccc(CC(=O)Nc2ccc(CCN3CCCc4ccc(CC5CC5)cc43)cc2)cc1,–
0.0075 µM,CC(C)Oc1ccc2c(c1)N(CCc1ccc(C(=O)NCc3ccc(S(C)(=O)=O)cn3)cc1)CCO2,Activity [2]: 45.2%; EC50 [3]: 0.107 µM; Activity [4]: 59.4%
0.013 µM,CCS(=O)(=O)c1ccc(CC(=O)Nc2ccc(CCN3CCCc4ccc(CC(C)C)cc43)c(F)c2)cc1,–
0.0156 µM,CCS(=O)(=O)c1ccc(CC(=O)Nc2ccc(CCN3CCCc4ccc(OC5CCC5)cc43)cc2)cc1,–
0.0303 µM,CCS(=O)(=O)c1ccc(CC(=O)Nc2ccc(CCN3CCCc4ccc(CC(C)(C)C)cc43)cc2)cc1,–
0.0215 µM,CCS(=O)(=O)c1ccc(CC(=O)Nc2ccc(CCN3CCCc4ccccc43)cc2)cc1,–
0.0073 µM,CCS(=O)(=O)c1ccc(CC(=O)Nc2ccc(CCN3CCOc4ccc(OC(C)C)cc43)cc2)cc1,–
0.0077 µM,CCS(=O)(=O)c1ccc(CNC(=O)c2ccc(CCN3CCCc4ccc(OC5COC5)cc43)cc2)nc1,–
0.0044 µM,CC(C)Oc1ccc2c(c1)N(CCc1ccc(NC(=O)Cc3ccc(S(C)(=O)=O)cc3)cc1)CCO2,–
–,CCS(=O)(=O)c1ccc(CC(=O)Nc2ccc(CC(=O)N3CCCc4ccc(CC(C)C)cc43)cc2)cc1,Imax [5]: 101%; IC50 [6]: 0.151 µM; IC50 [7]: 0.0315 µM
0.0071 µM,CCS(=O)(=O)c1ccc(CNC(=O)c2ccc(CCN3CCOc4ccc(CC(C)C)cc43)cc2)nc1,–
0.0167 µM,CCS(=O)(=O)c1ccc(CC(=O)Nc2ccc(CCN3CCCc4ccc(C)cc43)cc2)cc1,–
0.0221 µM,CCS(=O)(=O)c1ccc(CC(=O)Nc2ccc(CCN3CCCc4ccc(C(C)C)cc43)cc2)cc1,–
0.0122 µM,CCS(=O)(=O)c1ccc(CNC(=O)c2ccc(CCN3CCCc4ccc(OC5CCC5)cc43)cc2)nc1,–
–,CS(=O)(=O)c1ccc(CC(=O)Nc2ccc(CCN3CCOc4ccc(C(O)(C(F)(F)F)C(F)(F)F)cc43)cc2)cc1,IC50 [7]: 0.0146 µM
0.0046 µM,CCS(=O)(=O)c1ccc(CNC(=O)c2ccc(CCN3CCOc4ccc(OC(C)C)cc43)cc2)nc1,EC50 [3]: 0.135 µM
0.0089 µM,CCS(=O)(=O)c1ccc(CNC(=O)c2ccc(CCN3CCCc4ccc(OC(C)C)cc43)cc2)nc1,–

# From ChEMBL document CHEMBL4819001, “Discovery of tetrahydroquinolines and benzomorpholines as novel potent RORγt agonists” (Eur J Med Chem, 2021)
